SMILES strings stand for the structures.

The first assay deals with T1, recombinant human LXRβ-LBD-GST (Homo sapiens, UniProt P55055).
T1 construct: The LBD of LXRα or LXRβ was amplified by PCR and sub-cloned into the prokaryotic expression vector pGEX-4T-1; made in house; host or cells: E. coli
T1 sequence (P55055 222-460 limits assumed): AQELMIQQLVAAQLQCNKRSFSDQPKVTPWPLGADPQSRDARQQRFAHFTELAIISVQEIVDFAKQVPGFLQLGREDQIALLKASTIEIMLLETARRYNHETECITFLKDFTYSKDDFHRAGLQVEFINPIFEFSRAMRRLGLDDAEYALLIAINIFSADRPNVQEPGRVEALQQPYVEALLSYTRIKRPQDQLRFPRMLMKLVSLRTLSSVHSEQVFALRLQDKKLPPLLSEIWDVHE
As to the kind of experiment: Radioligand competition binding scintillation proximity assay (SpA), LXRβ.
Conditions: not given
An excerpt:
Radioligand Competition Binding Scintillation Proximity Assay (SpA) Using Recombinant Human LXRα or LXRβ Protein
These assays utilise the purified ligand binding domain (LBD) of Liver X Receptor alpha (LXRα) or Liver X Receptor beta (LXRβ) fused to […] (GST) tagged protein (LXRα-LBD-GST and LXRβ-LBD-GST respectively) and scintillation proximity assay (SpA) technology to determine binding affinities (pKi) of compounds at the ligand binding domain (LBD) of the human nuclear hormone receptor LXRα or LXRβ.
Preparation of Recombinant Human LXRα and LXRβ
Human LXRα and LXRβ were expressed as GST-fusion proteins in E. coli.
The LBD of LXRα or LXRβ was amplified by PCR and sub-cloned into the prokaryotic expression vector pGEX-4T-1 (GE Healthcare). […] E. coli, containing either the LXRα or LXRβ pGEX-4T-1 plasmid, were propagated, induced, and harvested by centrifugation. The bacterial pellets were resuspended in lysis buffer containing 50 mM tris(Hydroxymethyl)aminomethane (TRIS)-pH 8.0, 100 mM Sodium Chloride (NaCl), 1 mM ethylenediaminetetraacetic acid (EDTA) and one tablet of Proteinase inhibitor cocktail complete/EDTA free (Roche) (per 50 mL of buffer). The mixtures were sonicated on ice with a Branson sonifier. The suspensions were centrifuged and dithiothreitol (DTT) added to the supernatants to obtain a final concentration of 25 mM. […] Proteins were stored in 20 mM N2-hydroxyethylpiperazine-N′-2-ethanesulfonic acid (HEPES), 2 mM DTT with 10% glycerol at −80° C.
Binding to LXRα or LXRβ LBDs
For LXRα or LXRβ assays, an aliquot of recombinant human LXRα-LBD-GST or LXRβ-LBD-GST protein was diluted to 0.5 μg/mL and incubated in a final volume of 100 μL SpA buffer (10 mM potassium hydrogen phosphate anhydrous [K2HPO4], 10 mM potassium Phosphate Monobasic [KH2PO4], 2 mM EDTA pH 7.1, 50 mM NaCl, 1 mM DTT, 2 mM 3-[(3-cholamidopropyl)dimethylammonio]-1-propanesulfonate (CHAPS)) containing Protein-A coupled scintillant filled YtSi SpA beads (GE Healthcare), to a final concentration of 1 mg/mL and Goat anti-GST antibody (GE Healthcare) to a final concentration of 5 μg/mL. […] Test compounds were assayed over a concentration range. After incubation, the assay plates were read on a Packard TopCount.
On the technique in general: In a radioligand displacement assay an active substance lowers the binding of a labelled ligand.
For the molecule `O=C(Nc1ccc(OC2CCN(Cc3ccc(C(O)(C(F)(F)F)C(F)(F)F)cc3)CC2)cc1)Nc1ccnnc1` [Example 1F, 1-(4-(1-(4-(1,1,1,3,3,3-Hexafluoro-2-hydroxypropan-2-yl)benzyl)piperidin-4-yloxy)phenyl)-3-(pyridazin-4-yl)urea], the Ki is 5.89 nM.

Staying with this assay, now noted: read-out: LXRβ pKi (converted).
For `O=C(Nc1ccc(OC2CCN(Cc3ccc(C(O)(C(F)(F)F)C(F)(F)F)cc3)CC2)cc1)NC1CCOCC1` [Example 1C, 1-(4-(1-(4-(1,1,1,3,3,3-Hexafluoro-2-hydroxypropan-2-yl)benzyl)piperidin-4-yloxy)phenyl)-3-(tetrahydro-2H-pyran-4-yl)urea], the Ki is 9.77 nM. As for `CC(C)(O)CNC(=O)Nc1ccc(OC2CCN(Cc3ccc(C(O)(C(F)(F)F)C(F)(F)F)cc3)CC2)cc1` [Example 1D, 1-(4-(1-(4-(1,1,1,3,3,3-Hexafluoro-2-hydroxypropan-2-yl)benzyl)piperidin-4-yloxy)phenyl)-3-(2-hydroxy-2-methylpropyl)urea], the Ki is 11.5 nM. For `O=C(Nc1ccncc1)Nc1ccc(OC2CCN(Cc3ccc(C(O)(C(F)(F)F)C(F)(F)F)cc3)CC2)cc1` [Example 2, 1-(4-(1-(4-(1,1,1,3,3,3-Hexafluoro-2-hydroxypropan-2-yl)benzyl)piperidin-4-yloxy)phenyl)-3-(pyridin-4-yl)urea], the Ki was 2.04 nM. `O=C(Nc1ccc(OC2CCN(Cc3ccc(C(O)(C(F)(F)F)C(F)(F)F)cc3)CC2)cc1)Nc1ccncc1F` [Example 2C, 1-(3-Fluoropyridin-4-yl)-3-(4-(1-(4-(1,1,1,3,3,3-hexafluoro-2-hydroxypropan-2-yl)benzyl)piperidin-4-yloxy)phenyl)urea]: the Ki was 2 nM. As for `O=C(Nc1ccc(OC2CCN(Cc3ccc(C(O)(C(F)(F)F)C(F)(F)F)cc3)CC2)cc1)Nc1ccncn1` [Example 2E, 1-(4-(1-(4-(1,1,1,3,3,3-Hexafluoro-2-hydroxypropan-2-yl)benzyl)piperidin-4-yloxy)phenyl)-3-(pyrimidin-4-yl)urea], the Ki is 3.02 nM. Regarding `O=C(Nc1ccc(CC2CCN(Cc3ccc(C(O)(C(F)(F)F)C(F)(F)F)cc3)CC2)cc1)NC1COC1` [Example 6P, 1-(4-((1-(4-(1,1,1,3,3,3-Hexafluoro-2-hydroxypropan-2-yl)benzyl)piperidin-4-yl)methyl)phenyl)-3-(oxetan-3-yl)urea], the Ki is 9.12 nM. Still for that read-out and setting: then `O=C(Nc1ccc(CC2CCN(Cc3ccc(C(O)(C(F)(F)F)C(F)(F)F)cc3)CC2)cc1)Nc1ccncc1F` [Example 6S, 1-(3-Fluoropyridin-4-yl)-3-(4-((1-(4-(1,1,1,3,3,3-hexafluoro-2-hydroxypropan-2-yl)benzyl)piperidin-4-yl)methyl)phenyl)urea], with 7.41 nM; and `O=C(Nc1ccncc1)Nc1ccc(CC2CCN(Cc3ccc(C(O)(C(F)(F)F)C(F)(F)F)cc3)CC2)cc1` [Example 7, 1-(4-((1-(4-(1,1,1,3,3,3-Hexafluoro-2-hydroxypropan-2-yl)benzyl)piperidin-4-yl)methyl)phenyl)-3-(pyridin-4-yl)urea], with 7.94 nM; and `O=C(Nc1ccc(CC2CCN(Cc3ccc(C(O)(C(F)(F)F)C(F)(F)F)cc3)CC2)cc1)Nc1ccncn1` [Example 7B, 1-(4-((1-(4-(1,1,1,3,3,3-Hexafluoro-2-hydroxypropan-2-yl)benzyl)piperidin-4-yl)methyl)phenyl)-3-(pyrimidin-4-yl)urea], with 4.27 nM. Same read-out and setting: then `CC(O)(CNC(=O)Nc1ccc(CC2CCN(Cc3ccc(C(O)(C(F)(F)F)C(F)(F)F)cc3)CC2)cc1F)C(F)(F)F` (stereo not shown) [Example 12AA, 1-(2-Fluoro-4-((1-(4-(1,1,1,3,3,3-hexafluoro-2-hydroxypropan-2-yl)benzyl)piperidin-4-yl)methyl)phenyl)-3-(3,3,3-trifluoro-2-hydroxy-2-methylpropyl)urea], with 5.75 nM. Still for that read-out and setting: then `CC(C)(O)CNC(=O)Nc1ccc(CC2CCN(Cc3ccc(C(O)(C(F)(F)F)C(F)(F)F)cc3)CC2)cc1F` [Example 12AC, 1-(2-Fluoro-4-((1-(4-(1,1,1,3,3,3-hexafluoro-2-hydroxypropan-2-yl)benzyl)piperidin-4-yl)methyl)phenyl)-3-(2-hydroxy-2-methylpropyl)urea], with 17 nM; and `O=C(Nc1ccc(CC2CCN(Cc3ccc(C(O)(C(F)(F)F)C(F)(F)F)cc3)CC2)cc1F)NC1COC1` [Example 12AE, 1-(2-Fluoro-4-((1-(4-(1,1,1,3,3,3-hexafluoro-2-hydroxypropan-2-yl)benzyl)piperidin-4-yl)methyl)phenyl)-3-(oxetan-3-yl)urea], with 21.9 nM; and `O=C(Nc1ccc(CC2CCN(Cc3ccc(C(O)(C(F)(F)F)C(F)(F)F)cc3)CC2)cc1F)NC1CCOCC1` [Example 12AG, 1-(2-Fluoro-4-((1-(4-(1,1,1,3,3,3-hexafluoro-2-hydroxypropan-2-yl)benzyl)piperidin-4-yl)methyl)phenyl)-3-(tetrahydro-2H-pyran-4-yl)urea], with 21.9 nM. Take `O=C(Nc1cnoc1)Nc1ccc(CC2CCN(Cc3ccc(C(O)(C(F)(F)F)C(F)(F)F)cc3)CC2)cc1F` [Example 12D, 1-(2-Fluoro-4-((1-(4-(1,1,1,3,3,3-hexafluoro-2-hydroxypropan-2-yl)benzyl)piperidin-4-yl)methyl)phenyl)-3-(isoxazol-4-yl)urea]: the Ki is 4.9 nM. For the molecule `Cc1cc(NC(=O)Nc2ccc(CC3CCN(Cc4ccc(C(O)(C(F)(F)F)C(F)(F)F)cc4)CC3)cc2F)no1` [Example 12E, 1-(2-Fluoro-4-((1-(4-(1,1,1,3,3,3-hexafluoro-2-hydroxypropan-2-yl)benzyl)piperidin-4-yl)methyl)phenyl)-3-(5-methylisoxazol-3-yl)urea], the Ki is 9.55 nM.

Consider `O=C(Nc1ccc(CC2CCN(Cc3ccc(C(O)(C(F)(F)F)C(F)(F)F)cc3)CC2)cc1F)N[C@H]1CCOC1` [Example 12F, (S)-1-(2-Fluoro-4-((1-(4-(1,1,1,3,3,3-hexafluoro-2-hydroxypropan-2-yl)benzyl)piperidin-4-yl)methyl)phenyl)-3-(tetrahydrofuran-3-yl)urea], for which the Ki is 17 nM. Still for that read-out and setting: then `O=C(NCC(O)C(F)(F)F)Nc1ccc(CC2CCN(Cc3ccc(C(O)(C(F)(F)F)C(F)(F)F)cc3)CC2)cc1F` (stereo not shown) [Example 12I, 1-(2-Fluoro-4-((1-(4-(1,1,1,3,3,3-hexafluoro-2-hydroxypropan-2-yl)benzyl)piperidin-4-yl)methyl)phenyl)-3-(3,3,3-trifluoro-2-hydroxypropyl)urea], with 2.75 nM.

`O=C(Nc1ccncc1)Nc1ccc(CC2CCN(Cc3ccc(C(O)(C(F)(F)F)C(F)(F)F)cc3)CC2)cc1F` [Example 13, 1-(2-Fluoro-4-((1-(4-(1,1,1,3,3,3-hexafluoro-2-hydroxypropan-2-yl)benzyl)piperidin-4-yl)methyl)phenyl)-3-(pyridin-4-yl)urea]: the Ki was 5.5 nM. As to `O=C(Nc1ccncn1)Nc1ccc(CC2CCN(Cc3ccc(C(O)(C(F)(F)F)C(F)(F)F)cc3)CC2)cc1F` [Example 13B, 1-(2-Fluoro-4-((1-(4-(1,1,1,3,3,3-hexafluoro-2-hydroxypropan-2-yl)benzyl)piperidin-4-yl)methyl)phenyl)-3-(pyrimidin-4-yl)urea], the Ki is 9.77 nM. Still for that read-out and setting: then `CC(C)(O)CNC(=O)Nc1cc(F)c(CC2CCN(Cc3ccc(C(O)(C(F)(F)F)C(F)(F)F)cc3)CC2)cc1F` [Example 16, 1-(2,5-Difluoro-4-((1-(4-(1,1,1,3,3,3-hexafluoro-2-hydroxypropan-2-yl)benzyl)piperidin-4-yl)methyl)phenyl)-3-(2-hydroxy-2-methylpropyl)urea], with 24.5 nM; and `CC(O)(CNC(=O)Nc1cc(F)c(CC2CCN(Cc3ccc(C(O)(C(F)(F)F)C(F)(F)F)cc3)CC2)cc1F)C(F)(F)F` (stereo not shown) [Example 16B, 1-(2,5-Difluoro-4-((1-(4-(1,1,1,3,3,3-hexafluoro-2-hydroxypropan-2-yl)benzyl)piperidin-4-yl)methyl)phenyl)-3-(3,3,3-trifluoro-2-hydroxy-2-methylpropyl)urea], with 7.94 nM.

For the origin of these results see patent US9108939B2, “(1, 1, 1,3,3,3-hexafluoro-2 hydroxypropan-2-yl) phenyl derivative, pharmaceutical compositions thereof and their use for the treatment of atherosclerosis” (Merck Sharp & Dohme B.V., priority 2009, dated 2015).
